According to patent publication US10597388B2, “Pyridazinone herbicides” (FMC CORPORATION, priority 2014, dated 2020):

What was measured:
Assay in all cases: Test C greenhouse herbicide test, pre- and postemergence
Format in all cases: in vivo
[1] = tested on: barnyardgrass (Echinochloa crus-galli)
Description: (§1) Seeds of plant species selected from blackgrass (Alopecurus myosuroides), ryegrass, Italian (Italian ryegrass, Lolium multiflorum), wheat (winter wheat, Triticum aestivum), galium (catchweed bedstraw, Galium aparine), corn (Zea mays), large crabgrass, large (large crabgrass, Digitaria sanguinalis), foxtail, giant (giant foxtail, Setaria faberii), johnsongrass (Sorghum halepense), lambsquarters (Chenopodium album), morningglory (Ipomoea coccinea), nutsedge, yellow (yellow nutsedge, Cyperus esculentus), pigweed (Amaranthus retroflexus), ragweed (common ragweed, Ambrosia elatior), soybean (Glycine max), barnyardgrass (Echinochloa crus-galli), oilseed rape (Brassica napus), waterhemp (common waterhemp, Amaranthus rudis), and velvetleaf (Abutilon theophrasti) were planted into a blend of loam soil and sand and treated preemergence with test chemicals formulated in a non-phytotoxic solvent mixture which included a surfactant.
(§2) At the same time, plants selected from these crop and weed species and also chickweed (common chickweed, Stellaria media), kochia (Kochia scoparia), and oat, wild (wild oat, Avena fatua), were planted in pots containing Redi-Earth® planting medium (Scotts Company, 14111 Scottslawn Road, Marysville, Ohio 43041) comprising spaghnum peat moss, vermiculite, wetting agent and starter nutrients and treated with postemergence applications of test chemicals formulated in the same manner. Plants ranged in height from 2 to 18 cm (1- to 4-leaf stage) for postemergence treatments. Treated plants and controls were maintained in a greenhouse for 13 to 15 d, after which time all species were compared to controls and visually evaluated. Plant response ratings, summarized in Table C, are based on a scale of 0 to 100 where 0 is no effect and 100 is complete control. A dash (-) response means no test result.

[2] = tested on: blackgrass (Alopecurus myosuroides)
Description: as §1, §2

[3] = tested on: corn (Zea mays)
Description: as §1, §2

[4] = tested on: crabgrass, large (large crabgrass, Digitaria sanguinalis)
Description: as §1, §2

[5] = tested on: foxtail, giant (giant foxtail, Setaria faberii)
Description: as §1, §2

[6] = tested on: galium (catchweed bedstraw, Galium aparine)
Description: as §1, §2

[7] = tested on: johnsongrass (Sorghum halepense)
Description: as §1, §2

[8] = tested on: lambsquarters (Chenopodium album)
Description: as §1, §2

[9] = tested on: morningglory (Ipomoea coccinea)
Description: as §1, §2

[10] = tested on: oilseed rape (Brassica napus)
Description: as §1, §2

[11] = tested on: pigweed (Amaranthus retroflexus)
Description: as §1, §2

[12] = tested on: ragweed (common ragweed, Ambrosia elatior)
Description: as §1, §2

[13] = tested on: ryegrass, Italian (Italian ryegrass, Lolium multiflorum)
Description: as §1, §2

[14] = tested on: velvetleaf (Abutilon theophrasti)
Description: as §1, §2

[15] = tested on: waterhemp (common waterhemp, Amaranthus rudis)
Description: as §1, §2

[16] = Postemergence, 31 g ai/ha, 0 to 100 scale (0 no effect, 100 complete control)
[17] = Postemergence, 125 g ai/ha, scale 0 to 100, 0 is no effect, 100 is complete control
[18] = Postemergence, 250 g ai/ha, scale 0 to 100, 0 no effect, 100 complete control, 13 to 15 d
[19] = postemergence, 62 g ai/ha, scale 0 to 100, 0 no effect, 100 complete control

With `CC(=O)Oc1c(C)nn(C)c(=O)c1-c1c(C)oc2c(C)cc(C)cc12` [Compound 16, 5-(acetyloxy)-2,6-dimethyl-4-(2,5,7-trimethyl-3-benzofuranyl)-3(2H)-pyridazinone] the “Barnyardgrass plant response rating” value [1, 16] was 5, the “Plant response rating, Barnyardgrass” value [1, 17] was 70 and the “Plant response rating, Barnyardgrass” value [1, 18] was 90. For the same compound, the “Barnyardgrass plant response rating” value [1, 19] was 70, the “Blackgrass plant response rating” value [2, 16] was 0 and the “Plant response rating, Blackgrass” value [2, 17] was 5. The “Plant response rating, Blackgrass” value [2, 18] was 40, the “Blackgrass plant response rating” value [2, 19] was 5 and the “Corn plant response rating” value [3, 16] was 0. The “Plant response rating, Corn” value [3, 17] was 0, the “Plant response rating, Corn” value [3, 18] was 0 and the “Corn plant response rating” value [3, 19] was 0. For the same compound, the “Crabgrass, Large plant response rating” value [4, 16] was 5, the “Plant response rating, Crabgrass, Large” value [4, 17] was 20 and the “Plant response rating, Crabgrass, Large” value [4, 18] was 30. The “Crabgrass, Large plant response rating” value [4, 19] was 20, the “Foxtail, Giant plant response rating” value [5, 16] was 55 and the “Plant response rating, Foxtail, Giant” value [5, 17] was 70. The “Plant response rating, Foxtail, Giant” value [5, 18] was 80, the “Foxtail, Giant plant response rating” value [5, 19] was 60 and the “Galium plant response rating” value [6, 16] was 60. For the same compound, the “Plant response rating, Galium” value [6, 17] was 85, the “Plant response rating, Galium” value [6, 18] was 80 and the “Galium plant response rating” value [6, 19] was 80. The “Johnsongrass plant response rating” value [7, 16] was 0, the “Plant response rating, Johnsongrass” value [7, 17] was 0 and the “Plant response rating, Johnsongrass” value [7, 18] was 5. For the same compound, the “Johnsongrass plant response rating” value [7, 19] was 0, the “Lambsquarters plant response rating” value [8, 16] was 10 and the “Plant response rating, Lambsquarters” value [8, 17] was 40. The “Plant response rating, Lambsquarters” value [8, 18] was 20, the “Lambsquarters plant response rating” value [8, 19] was 60 and the “Morningglory plant response rating” value [9, 16] was 45. For the same compound, the “Plant response rating, Morningglory” value [9, 17] was 60, the “Plant response rating, Morningglory” value [9, 18] was 40 and the “Morningglory plant response rating” value [9, 19] was 50. The “Oilseed Rape plant response rating” value [10, 16] was 0, the “Plant response rating, Oilseed Rape” value [10, 17] was 10 and the “Plant response rating, Oilseed Rape” value [10, 18] was 0. The “Oilseed Rape plant response rating” value [10, 19] was 0, the “Pigweed plant response rating” value [11, 16] was 40 and the “Plant response rating, Pigweed” value [11, 17] was 30. The “Plant response rating, Pigweed” value [11, 18] was 50, the “Pigweed plant response rating” value [11, 19] was 30 and the “Ragweed plant response rating” value [12, 16] was 0. The “Plant response rating, Ragweed” value [12, 17] was 0, the “Plant response rating, Ragweed” value [12, 18] was 30 and the “Ragweed plant response rating” value [12, 19] was 0. For the same compound, the “Ryegrass, Italian plant response rating” value [13, 16] was 10, the “Plant response rating, Ryegrass, Italian” value [13, 17] was 60 and the “Plant response rating, Ryegrass, Italian” value [13, 18] was 70. For the same compound, the “Ryegrass, Italian plant response rating” value [13, 19] was 50, the “Velvetleaf plant response rating” value [14, 16] was 5 and the “Plant response rating, Velvetleaf” value [14, 17] was 20. For the same compound, the “Plant response rating, Velvetleaf” value [14, 18] was 35, the “Velvetleaf plant response rating” value [14, 19] was 5 and the “Waterhemp plant response rating” value [15, 16] was 5. The “Plant response rating, Waterhemp” value [15, 17] was 5, the “Plant response rating, Waterhemp” value [15, 18] was 5 and the “Waterhemp plant response rating” value [15, 19] was 5.

With `CC(=O)Oc1c(C)nn(C)c(=O)c1-c1c(C)oc2ccc(C)cc12` [Compound 14, 5-(acetyloxy)-4-(2,5-dimethyl-3-benzofuranyl)-2,6-dimethyl-3(2H)-pyridazinone] the “Barnyardgrass plant response rating” value [1, 16] was 5, the “Plant response rating, Barnyardgrass” value [1, 17] was 55 and the “Plant response rating, Barnyardgrass” value [1, 18] was 60. For the same compound, the “Barnyardgrass plant response rating” value [1, 19] was 5, the “Blackgrass plant response rating” value [2, 16] was 0 and the “Plant response rating, Blackgrass” value [2, 17] was 5. For the same compound, the “Plant response rating, Blackgrass” value [2, 18] was 20, the “Blackgrass plant response rating” value [2, 19] was 0 and the “Corn plant response rating” value [3, 16] was 0. For the same compound, the “Plant response rating, Corn” value [3, 17] was 0, the “Plant response rating, Corn” value [3, 18] was 5 and the “Corn plant response rating” value [3, 19] was 0. The “Crabgrass, Large plant response rating” value [4, 16] was 5, the “Plant response rating, Crabgrass, Large” value [4, 17] was 30 and the “Plant response rating, Crabgrass, Large” value [4, 18] was 35. For the same compound, the “Crabgrass, Large plant response rating” value [4, 19] was 5, the “Foxtail, Giant plant response rating” value [5, 16] was 20 and the “Plant response rating, Foxtail, Giant” value [5, 17] was 50. The “Plant response rating, Foxtail, Giant” value [5, 18] was 50, the “Foxtail, Giant plant response rating” value [5, 19] was 45 and the “Galium plant response rating” value [6, 16] was 50. The “Plant response rating, Galium” value [6, 17] was 80, the “Plant response rating, Galium” value [6, 18] was 90 and the “Galium plant response rating” value [6, 19] was 55. For the same compound, the “Johnsongrass plant response rating” value [7, 16] was 0, the “Plant response rating, Johnsongrass” value [7, 17] was 0 and the “Plant response rating, Johnsongrass” value [7, 18] was 5. For the same compound, the “Johnsongrass plant response rating” value [7, 19] was 0, the “Lambsquarters plant response rating” value [8, 16] was 80 and the “Plant response rating, Lambsquarters” value [8, 17] was 80. The “Plant response rating, Lambsquarters” value [8, 18] was 90, the “Lambsquarters plant response rating” value [8, 19] was 80 and the “Morningglory plant response rating” value [9, 16] was 65. For the same compound, the “Plant response rating, Morningglory” value [9, 17] was 100, the “Plant response rating, Morningglory” value [9, 18] was 100 and the “Morningglory plant response rating” value [9, 19] was 85. The “Oilseed Rape plant response rating” value [10, 16] was 0, the “Plant response rating, Oilseed Rape” value [10, 17] was 0 and the “Plant response rating, Oilseed Rape” value [10, 18] was 0. The “Oilseed Rape plant response rating” value [10, 19] was 0, the “Pigweed plant response rating” value [11, 16] was 55 and the “Plant response rating, Pigweed” value [11, 17] was 70. For the same compound, the “Plant response rating, Pigweed” value [11, 18] was 90, the “Pigweed plant response rating” value [11, 19] was 70 and the “Ragweed plant response rating” value [12, 16] was 15. The “Plant response rating, Ragweed” value [12, 17] was 50, the “Plant response rating, Ragweed” value [12, 18] was 98 and the “Ragweed plant response rating” value [12, 19] was 90. The “Ryegrass, Italian plant response rating” value [13, 16] was 40, the “Plant response rating, Ryegrass, Italian” value [13, 17] was 65 and the “Plant response rating, Ryegrass, Italian” value [13, 18] was 85. For the same compound, the “Ryegrass, Italian plant response rating” value [13, 19] was 60, the “Velvetleaf plant response rating” value [14, 16] was 10 and the “Plant response rating, Velvetleaf” value [14, 17] was 40. For the same compound, the “Plant response rating, Velvetleaf” value [14, 18] was 40, the “Velvetleaf plant response rating” value [14, 19] was 20 and the “Waterhemp plant response rating” value [15, 16] was 5. For the same compound, the “Plant response rating, Waterhemp” value [15, 17] was 50, the “Plant response rating, Waterhemp” value [15, 18] was 40 and the “Waterhemp plant response rating” value [15, 19] was 10.
